The values that follow are results of earlier work, collected in patent US11576952B2, “Injectable solution at pH 7 comprising at least one basal insulin for which the pI is from 5.8 to 8.5 and a co-polyamino acid bearing carboxylate charges and hydrophobic radicals” (ADOCIA, priority 2017, dated 2023).

For this data set the following is noted: background description.

As to insulin glargine, the “Period over which the blood sugar lowering effect is quasi-constant” value is 24 h.
